We go through four compounds from patent publication EP0005541A2, “Substituted piperidine, morpholine or piperidone derivatives, fungicides containing these compounds, process for their preparation and their use, and the use of these compounds as fungicides” (F. HOFFMANN-LA ROCHE & CO. Aktiengesellschaft, priority 1978, dated 1979).

Structures are written as SMILES. In brackets after ≈: the same amount, converted by molar mass.

Assay [1] concerns Venturia inaequalis. Briefly: Venturia inaequalis protective spray test on apple seedlings. Conditions: infected 2 days after spraying, read on day 13 after infection vs infected untreated control. Type of assay: in vivo. The procedure:
3 Apfelpflänzchen (verteilt auf 3 Töpfe mit 5 cm Durchmesser) aus Samen der Sorte GOLDIN DELICIOUS wurden im 4- bis 5-Blattstadium mit einer wässerigen Dispersion der Testsubstanz (wie allgemein üblich aufbereitet als Spritzpulver) allseitig gründlich besprüht. Die behandelten Pflanzen wurden anschliessend während 2 Tagen bei 17°C, 70-80%rel. Luftfeuchtigkeit und einer Photoperiode von 14 Stunden weiterkultiviert. Danach erfolgte die Infektion der Apfelsämlinge durch Besprühen mit in dest. Wasser suspendierten Konidien (200'000 Konidien/ml) von Venturia inaequalis. Nach der Infektion wurden die Pflanzen im Dunkeln während 48 Stunden bei 16-18°C und einer rel. Luftfeuchtigkeit von über 90% inkubiert und anschliessend in ein schattiertes Gewächshaus mit einer Temperatur von 22-26 °C und einer rel. Luftfeuchtigkeit von über 80% überführt. Am 13. Tage nach der Infektion erfolgte die Ermittlung der durch Venturia inaequalis befallenen Blattfläche gegenüber der infizierten, nicht behandelten Kontrolle. Die Resultate sind in Tabelle II zusammengefasst.

Assay [2] concerns Erysiphe graminis. Kind of assay: Erysiphe graminis protective spray test on barley seedlings (greenhouse). Type of assay: in vivo. Conditions: barley seedlings HERTA, infected 2 days after spraying, read 7 days after infection vs infected untreated control. The procedure: 30-40 Gerstenkeimlinge der Sorte HERTA (verteilt auf 2 Töpfe mit 7 cm Durchmesser) wurden jeweils im Einblattstadium mit einer wässerigen Dispersion der Testsubstanz (wie allgemein üblich aufbereitet als Spritzpulver) allseitig gründlich besprüht und anschliessend bei 22-26°C, 80% rel. Luftfeuchtigkeit und einer Photoperiode von 16 Stunden im Gewächshaus weiterkultiviert. Die Infektion erfolgte 2 Tage nach der Behandlung durch Bestäuben der Versuchspflanzen mit Kon dien von Erysiphe graminis. 7 Tage nach der Infektion wurde ::ie durch Erysiphe graminis befallene Blattfläche in % gegenüber derjenigen der infizierten, nicht behandelten Kontrolle ermittelt. Die Resultate sind in Tabelle I zusammengefasst.

Assay [3] deals with Histoplasma capsulatum Stamm Hist 2. Briefly: microbe, parasite or virus in culture. Type of assay: cell-based. Conditions: 288 h, read-out: MHC (µg/ml) Histoplasma capsulatum.
For assay [4], the system named is Puccinia coronata. Briefly: Puccinia coronata protective spray test on oat seedlings. The format is in vivo. To be noted: oat seedlings FLAEMINGSKRONE, infected 2 days after spraying, read on day 9 after infection vs infected untreated control. The procedure: 30-40 Haferkeimlinge der Sorte FLAEMINGSKRONE (verteilt auf 2 Töpfe mit 7 cm Durchmesser) wurden jeweils im Einblattstadium mit einer wässerigen Dispersion der Testsubstanz (wie allgemein üblich aufbereitet als Spritzpulver) allseitig gründlich besprüht und anschliessend in einer Klimakabine bei 17°C. 70-80% rel. Luftfeuchtigkeit und einer Photoperiode von 16 Stunden weiterkultiviert. Nach 2 Tagen erfolgte die Infektion der Versuchspflanzen durch Besprühen mit in dest. Wasser suspendierten Uredosporen (300'000 Sporen/ml) vor. Puccinia coronata. Danach wurden die Pflanzen während 24 Stunden bei 20°C und einer Luftfeuchtigkeit von über 90W im Dunkeln inkubiert und anschliessend in ein Gewächshaus mit einer Temperatur von 22-26 °C, einer rel. Luftfeuchtigkeit von 70% und einer Photoperiode von 18 Stunden übe führt. Am 9. Tage nach der Infektion wurde die durch Pucrinia coronata befallene Blattfläche in % gegenüber der infizierten, nicht behandelten Kontrolle ermittelt. Die ResLltate sind in Tabelle I zusammengefasst.

Assay [5] relates to Candida albicans Stamm H 29. Kind of assay: Candida albicans in vitro agar dilution test. Conditions: STAMMH29, 168 h, minimal concentration fully preventing growth, tested at 100, 10, 1 mcg/ml, 7 days at 37°C, values mostly maximum values, true MHC may be lower. The format is cell-based. The procedure: Methode: Eine standardisierte Suspension der Hefeform von Candida albicans Stamm H 29 (ca. 300 Zellen/5 ml, das fünfzigfache der zum Angehen der Kultur notwendigen geringsten Keimzahl) wird gleichzeitig mit geeigneten Präparatlösungen in verflüssigten und auf 50°C abgekühlten Agarnährboden nach Rowley und Huber eingegossen. Lösung der Präparate in Wasser oder Polyäthylenglykol (Carbowax 400). Präparate, die weder in Wasser noch in Polyäthylenglykol löslich sind, werden fein suspendiert. Endkonzentrationen der Präparate im Nährboden 100, 10 und 1 mcg/ml. Endkonzentration von Polyäthylenglykol 5%. 7 Tage Bebrütung bei 37°C.
(§1) Auswertung: Ablesung des Pilzwachstums mit blossem Auge.
(§2) Resultate: Angabe der minimalen Präparatkonzentration in mcg/ml, die das Wachstum des Pilzes vollständig verhindert (MHC). Die Resultate sind für einige Beispiele in der nachstehenden Tabelle II zusammengefasst.

For assay [6], the system named is Trichophyten mentagrophytes Stamm 109. Briefly: Trichophyton mentagrophytes in vitro agar dilution test. Type of assay: cell-based. To be noted: STAMM109, 168 h, minimal concentration fully preventing growth, tested at 100, 10, 1, 0,1, 0,01 mcg/ml, 7 days at 37°C, values mostly maximum values, true MHC may be lower, read-out: MHC (µg/ml) Trichophyton mentagr. The method, then:
Methode: Eine standardisierte Suspension der Hefeform von Konidien (Sporen) von Trichophyten mentagrophytes Stamm 109 (ca. das Fünfzigfache der zum Angehen der Kultur notwendigen geringsten Keimzahl) wird gleichzeitig mit geeigneten Präparatlösungen in verflüssigten und auf 50°C abgekühlten Agarnährboden nach Rowley und Huber eingegossen. Lösung der Präparate in Wasser oder Polyäthylenglykol (Carbowax 400). Präparate, die weder in Wasser noch in Polyäthylenglykol löslich sind, werden fein suspendiert. End- . konzentrationen der Präparate im Nährboden 100, 10, 1, 0,1 und 0,01 mcg/ml. Endkonzentration von Polyäthylenglykol 5%. 7 Tage Bebrütung bei 37°C.
as §1, §2
A general note: In agar dilution, organisms are placed on agar that contains the substance at set levels.

`CCC(C)(C)c1ccc(C(C)=C(C)CN2CCC(=O)CC2)cc1` [1-[3-(p-tert.-Amyl-phenyl)-2,3-dimethyl-2-propenyl]-4-piperidon]: the “Wirkung (in %) Venturia inaequalis” value in assay [1] (5 mg/l Spritzbrühe) came out at 0%; in assay [1] (16 mg/l Spritzbrühe) it was 37%; in assay [1] (50 mg/l Spritzbrühe), 83%; in assay [1] (160 mg/l Spritzbrühe), 98%. Besides, the “Wirkung (in %) Erysiphe graminis” value in assay [2] (5 mg/l Spritzbrühe) is 60%; in assay [2] (16 mg/l Spritzbrühe) it was 85%; in assay [2] (50 mg/l Spritzbrühe), 90%; in assay [2] (160 mg/l Spritzbrühe), 98%. Moreover, the MIC in assay [3], in assay [5] and in assay [6] was 10 µg/mL (≈ 31.9 µM) in each case. The “Wirkung (in %) Puccinia coronata” value in assay [4] (5 mg/l Spritzbrühe) was determined as 90%; in assay [4] (16 mg/l Spritzbrühe), 95%; in assay [4] (50 mg/l Spritzbrühe), 100%; in assay [4] (160 mg/l Spritzbrühe) it was 100%; in assay [4] (500 mg/l Spritzbrühe), 100%.

As to `CCC(C)(C)c1ccc(CC(C)CN2CCC(=O)CC2)cc1` (centres unmarked) [1-[3-(p-tert.-Amyl-phenyl)-2-methyl-propyl]-4-piperidon], the “Wirkung (in %) Venturia inaequalis” value in assay [1] (500 mg/l Spritzbrühe) is reported as 20%. The “Wirkung (in %) Erysiphe graminis” value is 20% in assay [2] (5 mg/l Spritzbrühe); 80% in assay [2] (16 mg/l Spritzbrühe); 95% in assay [2] (50 mg/l Spritzbrühe); 100% in assay [2] (160 mg/l Spritzbrühe); 100% in assay [2] (500 mg/l Spritzbrühe). Also, the MIC in assay [3], in assay [5] and in assay [6] was 10 µg/mL (≈ 33.2 µM) throughout. For the same compound, the “Wirkung (in %) Puccinia coronata” value in assay [4] (5 mg/l Spritzbrühe) is given as 0%; in assay [4] (16 mg/l Spritzbrühe), 10%; in assay [4] (50 mg/l Spritzbrühe) it was 90%; in assay [4] (160 mg/l Spritzbrühe), 98%; in assay [4] (500 mg/l Spritzbrühe), 100%.

Turning to `CC(Cc1ccc(C(C)(C)CCl)cc1)CN1CC(C)OC(C)C1` (centres unmarked) [4-/3-[p-(2-Chlor-1,1-dimethyl-äthyl)-phenyl]-2-methyl-propyl/-2,6-dimethyl-morpholin], the “Wirkung (in %) Venturia inaequalis” value in assay [1] (5 mg/l Spritzbrühe) is 13%; in assay [1] (16 mg/l Spritzbrühe), 67%; in assay [1] (50 mg/l Spritzbrühe), 93%; in assay [1] (160 mg/l Spritzbrühe) it was 95%; in assay [1] (500 mg/l Spritzbrühe), 95%. Moreover, the “Wirkung (in %) Erysiphe graminis” value stood at 60% in assay [2] (5 mg/l Spritzbrühe); 75% in assay [2] (16 mg/l Spritzbrühe); 90% in assay [2] (50 mg/l Spritzbrühe); 100% in assay [2] (160 mg/l Spritzbrühe); 100% in assay [2] (500 mg/l Spritzbrühe). The “Wirkung (in %) Puccinia coronata” value came out at 0% in assay [4] (5 mg/l Spritzbrühe), 0% in assay [4] (16 mg/l Spritzbrühe), 20% in assay [4] (50 mg/l Spritzbrühe) and 100% in assay [4] (160 mg/l Spritzbrühe).

As for `CC(CN1CCCCC1)C(O)c1ccc(C(C)(C)C)cc1` (stereo not drawn) [α-(p-tert.-Butyl-phenyl)-β-methyl-1-piperidin-propanol], the “Wirkung (in %) Venturia inaequalis” value turned out to be 10% in assay [1] (5 mg/l Spritzbrühe); 20% in assay [1] (16 mg/l Spritzbrühe); 43% in assay [1] (50 mg/l Spritzbrühe); 93% in assay [1] (160 mg/l Spritzbrühe); 100% in assay [1] (500 mg/l Spritzbrühe). In addition, the “Wirkung (in %) Erysiphe graminis” value in assay [2] (5 mg/l Spritzbrühe) amounted to 75%; in assay [2] (16 mg/l Spritzbrühe), 80%; in assay [2] (50 mg/l Spritzbrühe), 87%; in assay [2] (160 mg/l Spritzbrühe), 98%; in assay [2] (500 mg/l Spritzbrühe), 98%. Besides, the “Wirkung (in %) Puccinia coronata” value in assay [4] (5 mg/l Spritzbrühe) was 10%; in assay [4] (16 mg/l Spritzbrühe), 30%; in assay [4] (50 mg/l Spritzbrühe), 80%; in assay [4] (160 mg/l Spritzbrühe), 100%; in assay [4] (500 mg/l Spritzbrühe) it was 100%.
